Measured values published in patent US20260167619A2, “INDOLINE COMPOUNDS AND DERIVATIVES AS EGFR INHIBITORS” (BeOne Medicines I GmbH, priority 2020, published 2026).

What was measured:
[1] = target: T1, EGFR (aa668-1210, Invitrogen) (Homo sapiens, UniProt P00533); test: Biochemical EGFR inhibition assay (TR-FRET), wild-type EGFR; settings: ATP at Km, 15 min pre-incubation, 60 min reaction; read-out: WT (Km ATP) IC50
T1 construct: EGFR (aa668-1210, Invitrogen); purchased Invitrogen
In short: (§1)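 First the enzyme sat with compound for 15 minutes at room temperature, then ATP (Km level) and biotinylated poly-GT were added for a 60 min reaction. Stop solution with EDTA, anti-pTyr cryptate and streptavidin-XL665 followed for 1 h before TR-FRET reading.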

[2] = target: T2, EGFR(L858R_T790M_C797S) (aa695-end, Invitrogen) (Homo sapiens, UniProt P00533, C797S/L858R/T790M); test: Biochemical EGFR inhibition assay (TR-FRET), L858R/T790M/C797S mutant; settings: ATP at Km, 15 min pre-incubation, 60 min reaction; read-out: LR_TM_CS (Km ATP) IC50
T2 construct: purchased Invitrogen
T2 sequence (P00533 695-1210 T790M/C797S/L858R): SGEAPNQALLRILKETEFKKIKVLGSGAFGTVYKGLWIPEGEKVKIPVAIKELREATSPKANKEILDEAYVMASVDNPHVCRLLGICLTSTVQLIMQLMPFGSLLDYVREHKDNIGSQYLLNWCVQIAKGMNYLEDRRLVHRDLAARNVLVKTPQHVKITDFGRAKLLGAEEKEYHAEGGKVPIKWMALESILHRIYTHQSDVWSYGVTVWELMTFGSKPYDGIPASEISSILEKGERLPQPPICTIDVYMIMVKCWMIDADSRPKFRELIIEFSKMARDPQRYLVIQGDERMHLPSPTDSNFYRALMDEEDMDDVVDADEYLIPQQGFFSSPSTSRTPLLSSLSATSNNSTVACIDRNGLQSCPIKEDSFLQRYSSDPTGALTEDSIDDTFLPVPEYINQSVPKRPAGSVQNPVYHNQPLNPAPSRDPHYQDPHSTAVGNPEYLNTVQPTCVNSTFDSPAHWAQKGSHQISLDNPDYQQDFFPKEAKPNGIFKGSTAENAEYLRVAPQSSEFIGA
In short: as §1

[3] = target: EGFR(Dell9_T790M_C797S) (aa 669-1210, in house) (Homo sapiens, UniProt P00533, T790M/C797S, form not given); test: Biochemical EGFR inhibition assay (TR-FRET), Del19/T790M/C797S mutant; settings: ATP at Km, 15 min pre-incubation, 60 min reaction; read-out: Del_TM_CS (Km ATP) IC50
Chain of EGFR(Dell9_T790M_C797S) (aa 669-1210, in house) (P00533 with tags, fused parts or gaps DEL746-750/T790M/C797S, form open): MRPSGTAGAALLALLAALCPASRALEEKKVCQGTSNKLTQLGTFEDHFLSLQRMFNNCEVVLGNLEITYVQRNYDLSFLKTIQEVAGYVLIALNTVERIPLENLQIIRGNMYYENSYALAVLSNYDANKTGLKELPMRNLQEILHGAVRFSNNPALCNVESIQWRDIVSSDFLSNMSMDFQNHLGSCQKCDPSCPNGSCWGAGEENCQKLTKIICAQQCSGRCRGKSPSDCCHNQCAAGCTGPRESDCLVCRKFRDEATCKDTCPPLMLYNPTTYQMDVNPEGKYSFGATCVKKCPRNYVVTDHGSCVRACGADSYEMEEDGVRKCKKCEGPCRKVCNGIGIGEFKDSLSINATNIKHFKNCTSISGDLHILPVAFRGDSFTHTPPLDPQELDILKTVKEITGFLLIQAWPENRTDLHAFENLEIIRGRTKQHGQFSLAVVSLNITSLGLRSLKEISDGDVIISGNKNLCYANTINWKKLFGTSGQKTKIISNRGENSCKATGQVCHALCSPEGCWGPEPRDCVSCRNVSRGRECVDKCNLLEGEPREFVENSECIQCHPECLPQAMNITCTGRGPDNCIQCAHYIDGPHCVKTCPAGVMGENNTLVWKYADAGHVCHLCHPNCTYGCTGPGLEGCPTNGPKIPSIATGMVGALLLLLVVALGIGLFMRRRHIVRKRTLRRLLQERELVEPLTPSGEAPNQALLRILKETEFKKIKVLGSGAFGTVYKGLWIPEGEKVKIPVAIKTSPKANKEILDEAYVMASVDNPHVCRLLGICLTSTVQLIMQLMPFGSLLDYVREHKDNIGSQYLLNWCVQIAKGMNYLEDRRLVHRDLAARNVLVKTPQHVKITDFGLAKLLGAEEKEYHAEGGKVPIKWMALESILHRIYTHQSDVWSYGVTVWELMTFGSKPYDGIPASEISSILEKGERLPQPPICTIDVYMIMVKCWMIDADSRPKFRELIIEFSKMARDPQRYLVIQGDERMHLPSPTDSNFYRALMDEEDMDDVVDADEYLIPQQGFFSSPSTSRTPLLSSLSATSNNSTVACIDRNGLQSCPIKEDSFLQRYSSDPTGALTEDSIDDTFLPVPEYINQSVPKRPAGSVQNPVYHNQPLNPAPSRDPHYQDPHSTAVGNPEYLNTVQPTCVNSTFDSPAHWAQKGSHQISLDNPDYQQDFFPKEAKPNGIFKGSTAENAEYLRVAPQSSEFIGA
In short: as §1

BaF3-WT cells = BaF3-WT cells (Homo sapiens, UniProt P00533); test: Cell antiproliferation assay (CellTiter-Glo), BaF3-WT; type: cell-based; settings: 48 h treatment, read-out: BaF3-WT IC50
Method: (§2) BaF3 cells are treated with compounds diluted in 0.2% DMSO, dilution is done according to the following protocol: (1) make 500× stock solution in DMSO from 5 mM by 5-fold dilution, total 8 doses were included; (2) make 10× solution in cell culture medium by transferring 2 μl 500× stock solution into 98 μl medium; (3) 10 μl of 10× solution is added to cells and incubate for 48 h.
(§3) After 48 h treatment, add 30 μl CellTiter-Glo reagent[CellTiter-Glo® 2.0, (Promega, Cat #G9242)] to each well; seal the plate and incubate 2 min at room temperature on a plate shaker; Allow the plate to incubate at room temperature for 10 minutes to stabilize the luminescent signal. Record luminescence on BMG PheraStar with luminescence protocol.
(§4) The IC50 value of a compound can be obtained by fitting the following equation
(§5) Wherein, X and Y are known values, and IC50, Hillslope, Top and Bottom are the parameters obtained by fitting with software. Y is the inhibition percentage (calculated from the equation), X is the concentration of the compound; IC50 is the concentration of the compound when the 50% inhibition is reached. The smaller the IC50 value is, the stronger the inhibitory ability of the compound is. Vice versa, the higher the IC50 value is, the weaker the ability the inhibitory ability of the compound is; Hillslope represents the slope of the fitted curve, generally around 1 *; Bottom represents the minimum value of the curve obtained by data fitting, which is generally 0%±20%; Top represents the maximum value of the curve obtained by data fitting, which is generally 100%±20%. The experimental data were fitted by calculating and analyzing with Dotmatics data analysis software.

BaF3-LR_TM_CS cells = BaF3-LR_TM_CS cells (Homo sapiens, UniProt P00533, T790M/C797S/L858R, cells depend on it); test: Cell antiproliferation assay (CellTiter-Glo), BaF3-LR_TM_CS; type: cell-based; settings: 48 h treatment, read-out: BaF3-LR_TM_CS IC50
Chain of BaF3-LR_TM_CS cells (P00533 whole entry T790M/C797S/L858R): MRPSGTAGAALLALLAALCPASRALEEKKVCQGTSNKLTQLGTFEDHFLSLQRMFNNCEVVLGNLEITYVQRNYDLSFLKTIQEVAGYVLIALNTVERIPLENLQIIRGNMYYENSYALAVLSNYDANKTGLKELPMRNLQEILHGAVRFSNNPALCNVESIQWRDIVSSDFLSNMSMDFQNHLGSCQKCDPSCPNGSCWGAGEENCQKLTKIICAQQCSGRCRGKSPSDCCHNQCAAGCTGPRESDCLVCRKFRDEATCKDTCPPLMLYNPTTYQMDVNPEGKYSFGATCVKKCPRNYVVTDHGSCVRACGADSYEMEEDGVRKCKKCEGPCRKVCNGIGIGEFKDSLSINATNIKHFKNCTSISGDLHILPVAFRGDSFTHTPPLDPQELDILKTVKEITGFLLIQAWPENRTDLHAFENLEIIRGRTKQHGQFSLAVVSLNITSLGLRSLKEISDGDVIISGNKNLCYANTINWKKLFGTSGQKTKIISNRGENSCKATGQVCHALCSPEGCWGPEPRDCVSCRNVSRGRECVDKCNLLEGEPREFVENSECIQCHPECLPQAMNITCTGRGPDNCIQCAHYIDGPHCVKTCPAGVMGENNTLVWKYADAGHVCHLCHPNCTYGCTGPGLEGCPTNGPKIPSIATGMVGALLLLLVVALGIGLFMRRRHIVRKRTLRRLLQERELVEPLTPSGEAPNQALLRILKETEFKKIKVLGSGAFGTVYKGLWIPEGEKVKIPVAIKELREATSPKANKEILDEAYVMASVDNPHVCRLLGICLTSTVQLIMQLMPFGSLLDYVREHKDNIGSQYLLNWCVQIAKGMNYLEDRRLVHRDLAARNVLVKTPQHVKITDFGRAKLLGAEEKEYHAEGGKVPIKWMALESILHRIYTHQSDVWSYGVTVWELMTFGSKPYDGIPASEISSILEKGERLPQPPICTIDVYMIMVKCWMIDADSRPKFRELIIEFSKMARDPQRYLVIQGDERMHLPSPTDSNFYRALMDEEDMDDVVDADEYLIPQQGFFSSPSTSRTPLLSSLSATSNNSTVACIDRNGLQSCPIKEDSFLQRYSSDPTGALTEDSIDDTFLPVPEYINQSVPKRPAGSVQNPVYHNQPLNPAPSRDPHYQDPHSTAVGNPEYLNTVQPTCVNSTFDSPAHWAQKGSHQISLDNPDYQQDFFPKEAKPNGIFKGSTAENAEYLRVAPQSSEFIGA
Method: as §2, §3, §4, §5

BaF3-Del_TM_CS cells = BaF3-Del_TM_CS cells (Homo sapiens, UniProt P00533, T790M/C797S, cells depend on it, form not given); test: Cell antiproliferation assay (CellTiter-Glo), BaF3-Del_TM_CS; type: cell-based; settings: 48 h treatment, read-out: BaF3-Del_TM_CS IC50
Chain of BaF3-Del_TM_CS cells (P00533 with tags, fused parts or gaps DEL746-750/T790M/C797S, form open): as the sequence (P00533 with tags, fused parts or gaps DEL746-750/T790M/C797S, form open) above
Method: as §2, §3, §4, §5

T1 sequence (P00533 668-1210): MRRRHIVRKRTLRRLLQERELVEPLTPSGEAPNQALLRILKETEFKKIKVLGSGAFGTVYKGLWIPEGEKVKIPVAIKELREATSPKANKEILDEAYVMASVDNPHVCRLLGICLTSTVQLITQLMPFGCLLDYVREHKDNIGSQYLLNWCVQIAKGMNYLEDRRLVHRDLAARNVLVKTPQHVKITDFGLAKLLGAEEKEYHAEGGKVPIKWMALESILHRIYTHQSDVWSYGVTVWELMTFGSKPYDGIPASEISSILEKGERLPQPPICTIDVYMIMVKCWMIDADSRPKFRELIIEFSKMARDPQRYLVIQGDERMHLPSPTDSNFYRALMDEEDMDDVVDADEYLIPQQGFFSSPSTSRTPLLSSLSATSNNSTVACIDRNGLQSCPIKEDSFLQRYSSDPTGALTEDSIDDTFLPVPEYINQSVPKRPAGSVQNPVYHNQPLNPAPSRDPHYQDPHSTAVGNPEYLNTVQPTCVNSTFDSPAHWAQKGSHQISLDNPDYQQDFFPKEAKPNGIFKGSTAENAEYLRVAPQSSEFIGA

Compound	IC50 [1]	IC50 [2]	IC50 [3]	GI50 (BaF3-WT cells)	GI50 (BaF3-LR_TM_CS cells)	GI50 (BaF3-Del_TM_CS cells)
COc1cc(N2CCC(N3CCN(C)CC3)CC2)ccc1Nc1nc(Nc2cccc3c2N(S(C)(=O)=O)CC3)c2c(Cl)c[nH]c2n1 [Example 73, 5-chloro-N^2-(2-methoxy-4-(4-(4-methylpiperazin-1-yl)piperidin-1-yl)phenyl)-N^4-(1-(methylsulfonyl)indolin-7-yl)-7H-pyrrolo[2,3-d]pyrimidine-2,4-diamine]	0.0047 µM	0.00061 µM	0.0016 µM	0.853 µM	0.141 µM	0.0274 µM
CN(C)C1CCN(c2ccc(Nc3ncc(Br)c(Nc4cccc5c4N(S(C)(=O)=O)CC5)n3)c3c2OCCO3)CC1 [Example 54, 5-bromo-N^2-(8-(4-(dimethylamino)piperidin-1-yl)-2,3-dihydrobenzo[b][1,4]dioxin-5-yl)-N^4-(1-(methylsulfonyl)indolin-7-yl)pyrimidine-2,4-diamine]	0.0048 µM	0.00025 µM	0.00016 µM	0.372 µM	0.0424 µM	0.0186 µM
COc1cc(N2CCC(N3CCN(C)CC3)CC2)c(Cl)cc1Nc1nc(Nc2cccc3c2N(S(C)(=O)=O)CC3)c2cc[nH]c2n1 [Example 95, N^2-(5-chloro-2-methoxy-4-(4-(4-methylpiperazin-1-yl)piperidin-1-yl)phenyl)-N^4-(1-(methylsulfonyl)indolin-7-yl)-7H-pyrrolo[2,3-d]pyrimidine-2,4-diamine]	0.028 µM	0.00079 µM	0.0014 µM	1.96 µM	0.0838 µM	0.00958 µM
Cc1cc(Nc2nc(Nc3cccc4c3N(S(C)(=O)=O)CC4)c3cc[nH]c3n2)c(OC(C)C)cc1N1CCC(N2CCN(C)CC2)CC1 [Example 92, N^2-(2-isopropoxy-5-methyl-4-(4-(4-methylpiperazin-1-yl)piperidin-1-yl)phenyl)-N^4-(1-(methylsulfonyl)indolin-7-yl)-7H-pyrrolo[2,3-d]pyrimidine-2,4-diamine]	1.53 µM	0.017 µM	0.014 µM	1.4 µM	0.504 µM	0.225 µM
COc1cc(N2CCC(N3CCN(C)CC3)CC2)ccc1Nc1ncc(C#N)c(Nc2cccc3c2N(S(C)(=O)=O)CC3)n1 [Example 33, 2-((2-methoxy-4-(4-(4-methylpiperazin-1-yl)piperidin-1-yl)phenyl)amino)-4-((1-(methylsulfonyl)indolin-7-yl)amino)pyrimidine-5-carbonitrile]	0.0013 µM	0.0013 µM	0.001 µM	0.328 µM	0.225 µM	0.0685 µM
COc1cc(N2CCC(N3CCN(C)CC3)CC2)ccc1Nc1ncc(Cl)c(Nc2cccc3c2N(S(=O)(=O)CC2CC(F)(F)C2)CC3)n1 [Example 11, 5-chloro-N^4-(1-(((3,3-difluorocyclobutyl)methyl)sulfonyl)indolin-7-yl)-N^2-(2-methoxy-4-(4-(4-methylpiperazin-1-yl)piperidin-1-yl)phenyl)pyrimidine-2,4-diamine]	0.037 µM	0.0055 µM	0.038 µM	2.28 µM	0.377 µM	0.453 µM
COc1cc(N2C[C@@H](C)N(C)[C@@H](C)C2)c(C)cc1Nc1nc(Nc2cccc3c2N(S(C)(=O)=O)CC3)c2cc[nH]c2n1 [Example 106, N^2-(2-methoxy-5-methyl-4-((3S,5R)-3,4,5-trimethylpiperazin-1-yl)phenyl)-N^4-(1-(methylsulfonyl)indolin-7-yl)-7H-pyrrolo[2,3-d]pyrimidine-2,4-diamine]	0.575 µM	0.0053 µM	0.0049 µM	1.79 µM	0.0938 µM	0.0573 µM
COc1cc(N2CCC(N3CCN(C)CC3)CC2)ccc1Nc1ncc(Br)c(Nc2cccc3c2N(S(C)(=O)=O)CC3)n1 [Example 34, 5-bromo-N2-(2-methoxy-4-(4-(4-methylpiperazin-1-yl)piperidin-1-yl)phenyl)-N4-(1-(methylsulfonyl)indolin-7-yl)pyrimidine-2,4-diamine]	0.00072 µM	0.00021 µM	0.00024 µM	0.427 µM	0.013 µM	0.00425 µM
CN(C)C1CCN(c2ccc(Nc3ncc(Br)c(Nc4cccc5c4N(S(C)(=O)=O)CC5)n3)c3c2OCO3)CC1 [Example 52, 5-bromo-N^2-(7-(4-(dimethylamino)piperidin-1-yl)benzo[d][1,3]dioxol-4-yl)-N^4-(1-(methylsulfonyl)indolin-7-yl)pyrimidine-2,4-diamine]	0.0055 µM	0.00042 µM	0.00012 µM	0.145 µM	0.0187 µM	0.0112 µM
CN1CCN(C2CCN(c3ccc(Nc4ncc(Br)c(Nc5cccc6c5N(S(C)(=O)=O)CC6)n4)c4c3CCO4)CC2)CC1 [Example 50, 5-bromo-N^2-(4-(4-(4-methylpiperazin-1-yl)piperidin-1-yl)-2,3-dihydrobenzofuran-7-yl)-N^4-(1-(methylsulfonyl)indolin-7-yl)pyrimidine-2,4-diamine]	0.014 µM	0.001 µM	0.00063 µM	2.73 µM	0.176 µM	0.019 µM
CCN1CCN(C2CCN(c3ccc(Nc4nc(Nc5cccc6c5N(S(C)(=O)=O)CC6)c5cn[nH]c5n4)cc3F)CC2)CC1 [Example 76, N^6-(4-(4-(4-ethylpiperazin-1-yl)piperidin-1-yl)-3-fluorophenyl)-N^4-(1-(methylsulfonyl)indolin-7-yl)-1H-pyrazolo[3,4-d]pyrimidine-4,6-diamine]	0.0006 µM	0.0013 µM	0.00088 µM	0.987 µM	0.35 µM	0.0905 µM
COc1cc(N2CCC(N3CCN(C)CC3)CC2)ccc1Nc1ncc(Cl)c(Nc2cccc3c2N(C(=O)N(C)C)CC3)n1 [Example 15, 7-((5-chloro-2-((2-methoxy-4-(4-(4-methylpiperazin-1-yl)piperidin-1-yl)phenyl)amino)pyrimidin-4-yl)amino)-N,N-dimethylindoline-1-carboxamide]	1.36 µM	0.369 µM	2.2 µM	4.12 µM	2.03 µM	1.8 µM
COc1cc(C2CCN(CCO)CC2)c(C)cc1Nc1nc(Nc2cccc3c2N(S(C)(=O)=O)CC3)c2cc[nH]c2n1 [Example 108, 2-(4-(5-methoxy-2-methyl-4-((4-((1-(methylsulfonyl)indolin-7-yl)amino)-7H-pyrrolo[2,3-d]pyrimidin-2-yl)amino)phenyl)piperidin-1-yl)ethan-1-ol]	0.104 µM	0.0019 µM	0.0022 µM	2.14 µM	0.465 µM	0.181 µM
COc1cc(N2CCC(N3CCN(C)CC3)CC2)ccc1Nc1ncc(C)c(Nc2cccc3c2N(S(C)(=O)=O)CC3)n1 [Example 35, N^2-(2-methoxy-4-(4-(4-methylpiperazin-1-yl)piperidin-1-yl)phenyl)-5-methyl-N^4-(1-(methylsulfonyl)indolin-7-yl)pyrimidine-2,4-diamine]	0.00023 µM	0.00014 µM	0.00014 µM	0.604 µM	0.222 µM	0.0799 µM
COc1cc(N2CCC3(CCN(C)CC3)CC2)c(Cl)cc1Nc1nc(Nc2cccc3c2N(S(C)(=O)=O)CC3)c2cc[nH]c2n1 [Example 96, N^2-(5-chloro-2-methoxy-4-(9-methyl-3,9-diazaspiro[5.5]undecan-3-yl)phenyl)-N^4-(1-(methylsulfonyl)indolin-7-yl)-7H-pyrrolo[2,3-d]pyrimidine-2,4-diamine]	0.109 µM	0.0014 µM	0.0017 µM	1.48 µM	0.0665 µM	0.0293 µM
